# Patent US6670446B1, “N1 modified glycopeptides” (Eli Lilly and Company, priority 1998, dated 2003)
# How the values were obtained:
# Format in all cases: cell-based
# [1] = test system: Resistant Enterococcus faecium and faecalis; experiment: MIC, standard broth micro-dilution assay, Resistant; details: geometric mean of 4-6 isolates
# Protocol: (§1) The antibacterial efficacy of the present compounds is illustrated by Table III. The minimal inhibitory concentrations (MICs) were determined using a standard broth micro-dilution assay.
# [2] = test system: Sensitive Enterococcus faecium and faecalis; experiment: MIC, standard broth micro-dilution assay, Sensitive; details: geometric mean of 4-6 isolates
# Protocol: as §1
# [3] = test system: Staphylococcus aureus 446; experiment: MIC, standard broth micro-dilution assay, SA 446
# Protocol: as §1
# [4] = test system: Staphylococcus aureus 489; experiment: MIC, standard broth micro-dilution assay, SA 489
# Protocol: as §1
# [5] = test system: Staphylococcus aureus 447; experiment: MIC, standard broth micro-dilution assay, SA 447
# Protocol: as §1
# [6] = test system: Staphylococcus aureus X400; experiment: MIC, standard broth micro-dilution assay, SA X400
# Protocol: as §1
# [7] = test system: Staphylococcus aureus X778; experiment: MIC, standard broth micro-dilution assay, SA X778
# Protocol: as §1
# [8] = test system: Staphylococcus aureus 491; experiment: MIC, standard broth micro-dilution assay, SA 491
# Protocol: as §1
# [9] = test system: Staphylococcus aureus S13E
# Protocol: as §1
# [10] = test system: Staphylococcus aureus SA1199; experiment: MIC, standard broth micro-dilution assay, SA 1199
# Protocol: as §1
# [11] = test system: Staphylococcus aureus SA1199A; experiment: MIC, standard broth micro-dilution assay, SA 1199A
# Protocol: as §1
# [12] = test system: Staphylococcus haemolyticus 105; experiment: MIC, standard broth micro-dilution assay, SH 105
# Protocol: as §1
# [13] = test system: Staphylococcus haemolyticus 415; experiment: MIC, standard broth micro-dilution assay, SH 415
# Protocol: as §1
# [14] = test system: Staphylococcus epidermidis 270; experiment: MIC, standard broth micro-dilution assay, SE 270
# Protocol: as §1
# [15] = test system: Enterococcus faecium 180; experiment: MIC, standard broth micro-dilution assay, EF 180
# Protocol: as §1
# [16] = test system: Enterococcus faecium 180-1; experiment: MIC, standard broth micro-dilution assay, EF 180-1
# Protocol: as §1
# [17] = test system: Enterococcus faecalis 2041; experiment: MIC, standard broth micro-dilution assay, EF 2041
# Protocol: as §1
# [18] = test system: Enterococcus faecalis 276; experiment: MIC, standard broth micro-dilution assay, EF 276
# Protocol: as §1
# [19] = test system: Enterococcus gallinarum 245; experiment: MIC, standard broth micro-dilution assay, EG 245
# Protocol: as §1
# [20] = test system: Haemophilus influenzae RD; experiment: MIC, standard broth micro-dilution assay, HFRD
# Protocol: as §1
# [21] = test system: Escherichia coli EC14; experiment: MIC, standard broth micro-dilution assay, EC 14
# Protocol: as §1
Structure (SMILES),"minimal inhibitory concentration (MIC), Resistant [1]","minimal inhibitory concentration (MIC), Sensitive [2]","minimal inhibitory concentration (MIC), SA 446 [3]","minimal inhibitory concentration (MIC), SA 489 [4]","minimal inhibitory concentration (MIC), SA 447 [5]","minimal inhibitory concentration (MIC), SA X400 [6]","minimal inhibitory concentration (MIC), SA X778 [7]","minimal inhibitory concentration (MIC), SA 491 [8]","minimal inhibitory concentration (MIC), SA S13E [9]","minimal inhibitory concentration (MIC), SA 1199 [10]","minimal inhibitory concentration (MIC), SA 1199A [11]","minimal inhibitory concentration (MIC), SH 105 [12]","minimal inhibitory concentration (MIC), SH 415 [13]","minimal inhibitory concentration (MIC), SE 270 [14]","minimal inhibitory concentration (MIC), EF 180 [15]","minimal inhibitory concentration (MIC), EF 180-1 [16]","minimal inhibitory concentration (MIC), EF 2041 [17]","minimal inhibitory concentration (MIC), EF 276 [18]","minimal inhibitory concentration (MIC), EG 245 [19]","minimal inhibitory concentration (MIC), HFRD [20]",further results
"CC1OC(OC2c3ccc(c(Cl)c3)Oc3cc4cc(c3OC3OC(CO)C(O)C(O)C3OC3CC(C)(NCc5ccc(-c6ccccc6)cc5)C(O)C(C)O3)Oc3ccc(cc3Cl)C(O)C(NC(=O)C(Cc3c[nH]c5ccccc35)NC(=O)OC(C)(C)C)C(=O)NC(CC(N)=O)C(=O)NC4C(=O)NC3C(=O)NC2C(=O)NC(C(=O)O)c2cc(O)cc(O)c2-c2cc3ccc2O)CC(C)(N)C1O [Example 25, N^1-(N-BOC-D-tryptophan) derivative of N^DISACC-(p-phenylbenzyl)desleucylA82846B]",27,1.3,4,1,2,2,2,2,2,1,0.5,2,4,2,8,≦.06,1,2,2,>64,"minimal inhibitory concentration (MIC), EC 14 [21]: >64"
"CC1OC(OC2c3ccc(c(Cl)c3)Oc3cc4cc(c3OC3OC(CO)C(O)C(O)C3OC3CC(C)(NCc5ccc(-c6ccccc6)cc5)C(O)C(C)O3)Oc3ccc(cc3Cl)C(O)C(NC(=O)C3CCCN3C(=O)OC(C)(C)C)C(=O)NC(CC(N)=O)C(=O)NC4C(=O)NC3C(=O)NC2C(=O)NC(C(=O)O)c2cc(O)cc(O)c2-c2cc3ccc2O)CC(C)(N)C1O [Example 26, N^1-(N-BOC-D-proline) derivative of N^DISACCC-(p-phenylbenzyl)desleucylA82846B]",23,0.76,2,0.5,1,0.5,0.5,≦.06,1,1,0.125,1,2,0.25,4,≦.06,0.25,1,0.5,>64,"minimal inhibitory concentration (MIC), EC 14 [21]: >64"
"CC(C)CC(N)C(=O)NC1C(=O)NC(CC(N)=O)C(=O)NC2C(=O)NC3C(=O)NC(C(=O)NC(C(=O)O)c4cc(O)cc(O)c4-c4cc3ccc4O)C(OC3CC(C)(N)C(O)C(C)O3)c3ccc(c(Cl)c3)Oc3cc2cc(c3OC2OC(CO)C(O)C(O)C2OC2CC(C)(NCc3ccc(-c4ccccc4)cc3)C(O)C(C)O2)Oc2ccc(cc2Cl)C1O [Example 27, N^1-L-leucine derivative of N^DISACC-(p-phenylbenzyl)desleucylA82846B]",16,1,2,4,1,2,1,1,2,1,0.5,0.125,2,0.25,4,0.25,1,1,0.5,64,"minimal inhibitory concentration (MIC), EC 14 [21]: >64"
"CC1OC(OC2c3ccc(c(Cl)c3)Oc3cc4cc(c3OC3OC(CO)C(O)C(O)C3OC3CC(C)(NCc5ccc(-c6ccccc6)cc5)C(O)C(C)O3)Oc3ccc(cc3Cl)C(O)C(NC(=O)C(Cc3ccc(Cl)cc3)NC(=O)OC(C)(C)C)C(=O)NC(CC(N)=O)C(=O)NC4C(=O)NC3C(=O)NC2C(=O)NC(C(=O)O)c2cc(O)cc(O)c2-c2cc3ccc2O)CC(C)(N)C1O [Example 28, N^1-[N-BOC-L-3-(p-chlorophenyl)alanine] derivative of N^DISACC-(p-phenylbenzyl)desleucylA82846B]",13,1.7,4,1,2,2,1,2,2,2,1,2,4,1,2,0.5,2,1,2,>64,"minimal inhibitory concentration (MIC), EC 14 [21]: >64"
"CC1OC(OC2c3ccc(c(Cl)c3)Oc3cc4cc(c3OC3OC(CO)C(O)C(O)C3OC3CC(C)(NCc5ccc(-c6ccccc6)cc5)C(O)C(C)O3)Oc3ccc(cc3Cl)C(O)C(NC(=O)C3CCCN3C(=O)OC(C)(C)C)C(=O)NC(CC(N)=O)C(=O)NC4C(=O)NC3C(=O)NC2C(=O)NC(C(=O)O)c2cc(O)cc(O)c2-c2cc3ccc2O)CC(C)(N)C1O [Example 29, N^1-(N-BOC-L-proline) derivative of N^DISACC-(p-phenylbenzyl)desleucylA82846B]",27,1.2,2,0.25,0.5,0.25,0.125,≦.06,0.5,0.125,≦.06,0.125,0.5,≦.06,4,≦.06,0.125,0.25,2,>64,"minimal inhibitory concentration (MIC), EC 14 [21]: >64"
